Test results taken from PMC7769672, “Skin-Related Properties and Constituents from the Aerial Parts Extract of Persicaria senticosa” (Oxidative Medicine and Cellular Longevity, 2020).
“And” between values parts separate entries of the source, which are not always exact repeats. Equal values may be shown once. Read-outs that look alike come from different tables or passages of the source.

How the values were obtained:
elastase = elastase (Sus scrofa, UniProt P00772); experiment: Elastase inhibition assay; type: biochemical
Protocol: The reaction was carried out in 0.5 mM Tris buffer (pH 8.5) containing 1 mg/mL N-succinyl-(Ala)3-p-nitroanilide and 0.6 unit/mL elastase. The reaction mixture was incubated at 25°C for 10 min. The test samples were assayed for elastase inhibition by measuring its effect on elastase activity using an ELISA reader at 405 nm. Ursolic acid was used as a positive control, and the IC50 value of the sample was determined.

[1] = DPPH radical scavenging activity assay; conditions: for IC50: Table 3, isolated compounds; for DPPH radical scavenging activity (in words): Figure 4
Protocol: DPPH radical scavenging activity was measured by using the method described by Blois and Ozgen et al.. DPPH solution dissolved in methanol was added to the sample, which was diluted to the required concentration, and the reaction was carried out at room temperature for 30 min. Absorbance was measured at 517 nm using an ELISA reader. The antioxidant butylated hydroxyanisole (BHA) was used as a positive control, and the IC50 value of the sample was determined.

RAW 264.7 cells [2] = experiment: NO assay (nitrite by Griess reagent in LPS-stimulated cells); type: cell-based, murine
Protocol: RAW 264.7 cells were seeded in 96-well plates (5 × 10^4 cells/well) and were treated with sample for 1 h prior to LPS (1 μg/mL) stimulation for 24 h. The negative control was treated with serum-free media. The amount of nitrite, a stable metabolite of NO, was measured by using Griess reagent (1% sulfanilamide and 0.1% naphthylethylenediamine dihydrochloride in 2.5% phosphoric acid). Absorbance was subsequently measured at 540 nm using an ELISA reader. The quantity of nitrite was determined from a standard curve for sodium nitrite.

RAW 264.7 cells [3] = experiment: Cell cytotoxicity assay (MTT); type: cell-based, murine; conditions: Mus musculus, RAW264.7
Protocol: RAW 264.7 cells were plated at a density of 5 × 10^4 cells/well in 96-well plates. Cells were treated with samples for 1 h prior to LPS (1 μg/mL) stimulation for 24 h. MTT (5 mg/mL in PBS) was added to each well and incubated for 2 hr. The medium was removed from the wells by aspiration, DMSO was added to each well, and the plate was shaken. The absorbance of each well was measured at a wavelength of 540 nm using an ELISA reader. Data are presented as the mean ± standard deviation of three replicates.

mushroom tyrosinase = experiment: Tyrosinase inhibition assay; type: biochemical; conditions: for IC50: Table 3, isolated compounds
Protocol: Tyrosinase inhibitory activity was measured by using the method described by Yagi et al.. The reaction was carried out in 0.1 M potassium phosphate buffer (pH 6.5) containing 1.5 mM L-tyrosine and 1250 units/mL mushroom tyrosinase. The reaction mixture was incubated at 37°C for 20 min. The test samples were assayed for tyrosinase inhibition by measuring its effect on tyrosinase activity using SpectraMax 190PC microplate ELISA reader at 490 nm.

[4] = ABTS radical scavenging activity
Protocol: ABTS radical scavenging activity was measured by using a previously described method. ABTS+ was formed by mixing 7 mM ABTS solution and 2.45 mM potassium persulfate (K2S2O8) solution with ABTS: K2S2O8 (2 : 1 ratio) for 12–16 h to form a cation (ABTS^+). The absorbance was measured at 734 nm using an ELISA reader. BHA, an antioxidant, was used as the positive control.

[5] = Table 3, isolated compounds, read-out: Elastase inhibition assay IC50
[6] = Mus musculus, RAW264.7, Table 3, isolated compounds, read-out: NO assay IC50
[7] = Table 3, isolated compounds, read-out: MTT assay IC50

elastase, sequence (P00772 27-266): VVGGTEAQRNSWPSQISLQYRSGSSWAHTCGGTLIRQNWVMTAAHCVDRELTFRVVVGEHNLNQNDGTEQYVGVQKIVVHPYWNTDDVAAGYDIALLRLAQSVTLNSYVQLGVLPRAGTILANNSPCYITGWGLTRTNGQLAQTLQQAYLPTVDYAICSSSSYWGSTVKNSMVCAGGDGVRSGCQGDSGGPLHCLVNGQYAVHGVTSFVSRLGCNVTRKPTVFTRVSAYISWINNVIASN

Structure (SMILES)	IC50 (elastase; [5]) [µM]	IC50 [1]	IC50 (RAW 264.7 cells [2]; [6]) [µM]	IC50 (mushroom tyrosinase) [µM]	IC50 (RAW 264.7 cells [3]; [7]) [µM]	further results
[H]/N=C(/NC)NCCC[C@H](N)C(=O)O [L-NMMA, reference compound]			14.6		> 100	IC50 (RAW 264.7 cells [2]; Mus musculus, RAW264.7, Table 2 positive control, read-out: Anti-inflammatory NO, positive control): 37.6 µM; IC50 (RAW 264.7 cells [2]; Mus musculus, RAW264.7, Table 1 positive control, read-out: Anti-inflammatory NO (IC50), positive control): 36.3 µM; IC50 (RAW 264.7 cells [3]; Table 1 positive control, read-out: Anti-inflammatory MTT, positive control): > 100 µM
O=c1c(O[C@@H]2O[C@H](CO)[C@@H](O)[C@H](O)[C@H]2O)c(-c2ccc(O)c(O)c2)oc2cc(O)cc(O)c12 [Compound 2, quercetin-3-O-glucoside]	> 1000	39.6 µM and 39.4 µM	> 100	> 100	> 100	DPPH radical scavenging activity (in words) [1]: excellent antioxidant activity; IC50 ([1]; listed as Comp. 2): 39.6 ± 4.1 µM
OC[C@H]1O[C@@H](Oc2ccc(O)cc2)[C@H](O)[C@@H](O)[C@@H]1O [Arbutin, reference compound]						Whitening Tyrosinase assay (IC50) (mushroom tyrosinase; Table 1, methanol extracts, L-tyrosine substrate): Arbutin 135.0 ± 19.9 μg/mL
O=C(O)C1OC(Oc2c(-c3ccc(O)c(O)c3)oc3cc(O)cc(O)c3c2=O)C(O)C(O)C1O (stereo not drawn) [Compound 3, quercetin-3-O-glucuronide]	> 1000	31.2 µM	> 100	> 100	> 100	IC50 ([1]; listed as Comp. 3): 31.2 ± 0.47 µM
COc1ccc(O)c(C(C)(C)C)c1 [BHA, butylated hydroxyanisole, reference compound]		272 µM				Antioxidant ABTS (IC50) ([4]; Table 1, methanol extracts, 734 nm): BHA 2.9 ± 0.1 μg/mL; Antioxidant ABTS ([4]; Table 2, fractions): BHA 4.03 ± 0.05 μg/mL; Antioxidant DPPH (IC50) ([1]; Table 1, methanol extracts, 30 min, 517 nm): BHA 15.6 ± 0.2 μg/mL; Antioxidant DPPH ([1]; Table 2, fractions): BHA 14.58 ± 0.06 μg/mL
COc1ccc(/C=C/C(=O)OC(C(=O)O)C(O)C(=O)O)cc1O (stereo not drawn) [Compound 4, 4-methoxy caftraric acid]	> 1000	> 1000 µM	> 100	> 100	84.6 ± 9.85	
C[C@H]1[C@H](C)CC[C@]2(C(=O)O)CC[C@]3(C)C(=CC[C@@H]4[C@@]5(C)CC[C@H](O)C(C)(C)[C@@H]5CC[C@]43C)[C@H]12 [Ursolic acid, reference compound]	86.3					IC50 (elastase; Table 1, methanol extracts, read-out: Anti-wrinkle Elastase assay (IC50)): 116 µM; IC50 (elastase; Table 2, fractions, unit inferred, read-out: Antiwrinkle Elastase assay): 85.3 µM

Now from value to compound, other results behind:

IC50 (elastase; [5]) [µM]	IC50 [1]	IC50 (RAW 264.7 cells [2]; [6]) [µM]	IC50 (mushroom tyrosinase) [µM]	Structure (SMILES)	IC50 (RAW 264.7 cells [3]; [7]) [µM]	further results
> 1000	> 1000 µM	> 100	> 100	COC(=O)C1OC(Oc2c(-c3ccc(O)c(O)c3)oc3cc(O)cc(O)c3c2=O)C(O)C(O)C1O (stereo not drawn) [Compound 6, quercetin-3-(6-methylglucuronide)]	> 100	
> 1000	> 1000 µM	> 100	> 100	CC1(C)C[C@H](O)C[C@@]2(C)OC(=O)C=C12 [Compound 1, loliolide]	> 100	
> 1000	37 µM	> 100	> 100	COC(=O)C1OC(Oc2c(-c3ccc(O)cc3)oc3cc(O)cc(O)c3c2=O)C(O)C(O)C1O (stereo not drawn) [Compound 5, kaempferol-3-(6-methylglucuronide)]	> 100	DPPH radical scavenging activity (in words) [1]: excellent antioxidant activity; IC50 ([1]; listed as Comp. 5): 36.99 ± 0.16 µM
	22.7 µM	29.7		O=c1c(O)c(-c2ccc(O)c(O)c2)oc2cc(O)cc(O)c12 [Compound 7, quercetin]	> 100	IC50 ([1]; listed as Comp. 7): 22.7 ± 0.53 µM; IC50 (RAW 264.7 cells [2]; Table 3, isolated compounds, listed as Comp. 7, read-out: NO assay IC50): 29.7 ± 7.07 µM
